From US20150368669A1, “GENE DELIVERY SYSTEM […] GENE AND PHARMACEUTICAL COMPOSITION USING RELAXIN” (INDUSTRY-ACADEMIC COOPERATION FOUNDATION, YONSEI UNIVERSITY, priority 2004, published 2015)

Key:
Assay type in all cases: cell-based, human
C33A = assay: TUNEL assay, C33A
Method: (§1) U343 (5×10^4), U87MG (5×10^4), C33A (5×10^5), Hep3B (4×10^5), and A549 (5×10^4) cells were plated onto a chamber slide and then infected with adenovirus at an MOT of 0.2-20. Following 24 hr and 48 hr of infection, medium was removed and TUNNEL assay was carried out according to the manufacturer's instruction of ApopTag kit (Intergen, Purchase, N.Y.). For color development, cells were incubated with peroxidase-conjugated streptavidin and then diaminobenzidine (DAKO, Carpinteria, Calif.). At the time that color of cells became brown, cells were counterstained with 0.5% methyl green for 10 min and observed under microscope in more than 4 selected fields. The ratio of stained cells to total cells was calculated.

U343 = assay: TUNEL assay, U343
Method: as §1

U87MG = assay: TUNEL assay, U87MG
Method: as §1

A549 = assay: TUNEL assay, A549
Method: as §1

C33A cells = assay: Flow cytometry, Annexin-V and PI dual staining, C33A
Method: To examine apoptosis induced by relaxin, human tumor cell lines, U343, U87MG, C33A, Hep3B and A549, were introduced to 25 T culture flasks and 24 hr later, infected with Ad-ΔE1B or Ad-ΔE1B-RLX adenovirus at an MOT of 0.5-5. Cells were treated with 0.1-1 μM CPT-11 […] as a positive control and treated with PBS as a negative control. After 48 hr, 72 hr and 96 hr of infection, the infected cells were collected and fixed in 70% ethanol at 4° C. for 24 hr. Following the fixation, the cells were incubated with a mixture of PI (propidium iodide, […]) and RNase for 15 min and the analysis by flow cytometry was performed. In addition, to examine early apoptosis induced by relaxin, several human tumor cell lines were infected with Ad-ΔE1B or Ad-ΔE1B-RLX adenovirus as described above. The infected cells were collected and then processed for Annexin V/PI dual staining according to manufacturer's instruction in the ApoAlert V-FITC apoptosis kit (Clontech, Palo Alto, Calif.), followed by flow cytometric analysis.

Hep3B = assay: TUNEL assay, Hep3B
Method: as §1

CC[C@@]1(O)C(=O)OCc2c1cc1n(c2=O)Cc2cc3ccccc3nc2-1 [CPT, camptothecin]
Proportion of apoptotic cells (%) (C33A): 60.1 ± 25.41% | Proportion of apoptotic cells (%) (U343): 53.5 ± 7.45% | Proportion of apoptotic cells (%) (U87MG): 83.0 ± 29.29% | Proportion of apoptotic cells (%) (A549): 37.5 ± 5.35% | apoptotic rate (Annexin-V+/PI−) (C33A cells): 57.10% | Proportion of apoptotic cells (%) (Hep3B): 71.2 ± 15.73%
